From ChEMBL document CHEMBL1201862, “PubChem BioAssay data set” (2004)
Active and inactive are the calls of the source.

Columns and labels:
[1] = target: Alkaline phosphatase, tissue-nonspecific isozyme (Homo sapiens, UniProt P05186)
Beta-lactamase = Beta-lactamase (Salmonella choleraesuis (strain SC-B67), UniProt Q5J463)
Insulin-degrading enzyme = target: T1, Insulin-degrading enzyme (Homo sapiens, UniProt P14735); assay: recombinant IDE activation, cell-free – biochemical, fluorescence polarization, counter-screen for IDE activator project, dose response (AID 588681)
T1 sequence (P14735 whole entry): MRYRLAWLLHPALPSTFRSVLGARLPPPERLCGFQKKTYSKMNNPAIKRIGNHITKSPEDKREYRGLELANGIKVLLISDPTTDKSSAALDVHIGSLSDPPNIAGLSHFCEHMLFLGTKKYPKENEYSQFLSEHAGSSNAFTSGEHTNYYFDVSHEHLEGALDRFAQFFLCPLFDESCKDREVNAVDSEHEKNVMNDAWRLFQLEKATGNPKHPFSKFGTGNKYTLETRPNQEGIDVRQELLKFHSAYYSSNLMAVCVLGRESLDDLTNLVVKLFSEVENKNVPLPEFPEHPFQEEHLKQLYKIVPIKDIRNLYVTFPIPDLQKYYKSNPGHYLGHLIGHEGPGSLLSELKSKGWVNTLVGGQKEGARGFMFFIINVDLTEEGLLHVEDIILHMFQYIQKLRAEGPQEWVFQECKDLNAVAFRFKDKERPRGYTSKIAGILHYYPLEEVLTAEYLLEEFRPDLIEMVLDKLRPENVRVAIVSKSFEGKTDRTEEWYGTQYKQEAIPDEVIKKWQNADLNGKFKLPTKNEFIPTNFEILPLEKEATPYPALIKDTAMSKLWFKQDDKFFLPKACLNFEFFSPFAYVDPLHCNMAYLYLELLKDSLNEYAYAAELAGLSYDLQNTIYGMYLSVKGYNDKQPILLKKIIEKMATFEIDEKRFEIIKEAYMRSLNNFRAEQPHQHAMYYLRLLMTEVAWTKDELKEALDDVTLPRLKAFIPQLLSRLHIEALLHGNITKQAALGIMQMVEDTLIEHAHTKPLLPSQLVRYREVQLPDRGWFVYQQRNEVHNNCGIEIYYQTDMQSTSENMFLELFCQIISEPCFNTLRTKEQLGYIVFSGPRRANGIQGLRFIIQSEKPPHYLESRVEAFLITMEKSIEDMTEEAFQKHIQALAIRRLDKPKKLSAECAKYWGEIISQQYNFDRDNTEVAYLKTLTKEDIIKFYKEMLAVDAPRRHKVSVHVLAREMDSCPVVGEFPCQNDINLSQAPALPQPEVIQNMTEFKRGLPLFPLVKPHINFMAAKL

HEK293 = assay: membrane integrity loss in HEK cells – cell-based, fluorescence, cytotoxicity control for IDE activator project, dose response (AID 588440); assay type: functional; details: Homo sapiens;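 note: cytotoxicity by LDH release measuring loss of membrane integrity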
[2] = target: T2, Histone-lysine N-methyltransferase NSD2 (Homo sapiens, UniProt O96028); assay type: biochemical
T2 sequence (O96028 whole entry): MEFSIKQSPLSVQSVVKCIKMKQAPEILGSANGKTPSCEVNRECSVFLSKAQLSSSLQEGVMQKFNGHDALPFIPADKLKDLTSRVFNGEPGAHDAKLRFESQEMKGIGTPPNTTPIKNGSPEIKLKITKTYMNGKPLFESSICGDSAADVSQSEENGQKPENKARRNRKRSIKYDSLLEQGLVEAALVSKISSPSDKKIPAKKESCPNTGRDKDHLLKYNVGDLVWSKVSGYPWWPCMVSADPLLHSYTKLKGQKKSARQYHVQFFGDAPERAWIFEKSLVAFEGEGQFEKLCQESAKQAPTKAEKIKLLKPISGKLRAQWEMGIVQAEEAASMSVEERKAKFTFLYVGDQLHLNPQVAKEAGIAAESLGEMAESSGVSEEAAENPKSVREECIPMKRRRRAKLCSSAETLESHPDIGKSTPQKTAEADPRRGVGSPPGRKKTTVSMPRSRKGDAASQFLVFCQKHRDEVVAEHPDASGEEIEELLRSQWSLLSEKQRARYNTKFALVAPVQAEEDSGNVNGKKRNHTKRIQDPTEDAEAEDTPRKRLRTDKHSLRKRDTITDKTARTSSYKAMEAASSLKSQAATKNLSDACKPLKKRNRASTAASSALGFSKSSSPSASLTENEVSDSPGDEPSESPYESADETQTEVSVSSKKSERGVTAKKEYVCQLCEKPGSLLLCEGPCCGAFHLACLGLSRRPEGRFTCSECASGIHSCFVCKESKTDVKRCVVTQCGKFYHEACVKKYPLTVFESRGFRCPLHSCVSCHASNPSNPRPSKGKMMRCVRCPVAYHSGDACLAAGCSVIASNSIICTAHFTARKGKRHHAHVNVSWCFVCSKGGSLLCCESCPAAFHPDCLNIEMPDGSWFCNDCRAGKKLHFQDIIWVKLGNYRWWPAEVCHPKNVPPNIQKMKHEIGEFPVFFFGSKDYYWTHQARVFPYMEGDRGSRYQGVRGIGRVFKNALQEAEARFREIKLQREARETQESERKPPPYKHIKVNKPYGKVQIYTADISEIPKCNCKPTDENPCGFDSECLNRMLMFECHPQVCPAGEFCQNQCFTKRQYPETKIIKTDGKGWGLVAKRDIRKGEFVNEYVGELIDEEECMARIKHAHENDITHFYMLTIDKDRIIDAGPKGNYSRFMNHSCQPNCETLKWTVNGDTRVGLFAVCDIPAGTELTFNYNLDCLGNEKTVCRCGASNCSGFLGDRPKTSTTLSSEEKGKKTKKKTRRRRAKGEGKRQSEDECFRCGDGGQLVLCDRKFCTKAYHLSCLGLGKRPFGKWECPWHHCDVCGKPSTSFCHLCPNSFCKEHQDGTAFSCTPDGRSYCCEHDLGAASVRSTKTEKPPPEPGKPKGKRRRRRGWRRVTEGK

[3] = target: Serine/threonine-protein phosphatase PP1-alpha catalytic subunit (Homo sapiens, UniProt P62136); assay: inhibition of protein phosphatase 1 activity – biochemical, fluorescence, dose response (AID 2394)
[4] = target: Dual specificity protein phosphatase 6 (Rattus norvegicus, UniProt Q64346); assay: inhibition of rat DUSP6 enzyme activity – biochemical, in vitro, primary screen (AID 425)
[5] = target: T3, Ubiquitin-conjugating enzyme E2 N (Homo sapiens, UniProt P61088); assay type: functional;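 note: Dose-response confirmation in a TR-FRET assay detecting UBC13-driven polyubiquitin chain formation, inhibition measured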
T3 sequence (P61088 whole entry): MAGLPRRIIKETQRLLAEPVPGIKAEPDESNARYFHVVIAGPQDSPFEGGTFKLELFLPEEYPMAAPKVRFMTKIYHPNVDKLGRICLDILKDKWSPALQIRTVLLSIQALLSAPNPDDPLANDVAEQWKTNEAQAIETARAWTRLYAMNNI

[6] = target: 5-hydroxytryptamine receptor 5A (Homo sapiens, UniProt P47898); assay: Counterscreen for agonists of OPRM1-OPRD1 heterodimerization: luminescence-based cell-based high throughput dose response assay to identify agonists of 5-hydroxytryptamine (serotonin) 5A receptor (HTR5A). [Related pubchem assays (depositor defined):AID504326, AID504355, AID504692, AID504904, AID504905]; assay type: functional
Sequence of 5-hydroxytryptamine receptor 5A (P47898 whole entry): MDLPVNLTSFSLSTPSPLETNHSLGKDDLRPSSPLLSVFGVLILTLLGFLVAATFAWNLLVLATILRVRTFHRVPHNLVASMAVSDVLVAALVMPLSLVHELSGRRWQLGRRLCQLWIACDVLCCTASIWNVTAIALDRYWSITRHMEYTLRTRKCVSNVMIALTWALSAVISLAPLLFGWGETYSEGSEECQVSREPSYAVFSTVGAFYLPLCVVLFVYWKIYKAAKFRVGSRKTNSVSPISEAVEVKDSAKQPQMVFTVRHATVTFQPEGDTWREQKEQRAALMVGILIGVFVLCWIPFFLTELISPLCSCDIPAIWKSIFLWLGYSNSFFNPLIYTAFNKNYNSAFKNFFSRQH

Sequence of Alkaline phosphatase, tissue-nonspecific isozyme (P05186 whole entry): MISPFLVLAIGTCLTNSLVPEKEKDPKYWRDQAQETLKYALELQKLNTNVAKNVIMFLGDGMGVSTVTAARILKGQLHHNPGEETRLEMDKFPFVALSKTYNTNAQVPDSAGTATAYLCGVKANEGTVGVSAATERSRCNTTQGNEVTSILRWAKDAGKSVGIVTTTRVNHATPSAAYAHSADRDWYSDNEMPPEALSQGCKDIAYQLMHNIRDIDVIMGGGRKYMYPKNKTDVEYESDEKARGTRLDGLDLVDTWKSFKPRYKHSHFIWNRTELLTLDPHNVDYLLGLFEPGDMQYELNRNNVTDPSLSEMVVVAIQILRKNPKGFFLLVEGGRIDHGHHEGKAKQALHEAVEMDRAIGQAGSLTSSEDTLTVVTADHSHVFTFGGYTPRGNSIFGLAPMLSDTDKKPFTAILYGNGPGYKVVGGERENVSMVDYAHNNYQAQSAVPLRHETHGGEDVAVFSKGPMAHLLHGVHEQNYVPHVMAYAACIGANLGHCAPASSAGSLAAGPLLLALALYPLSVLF
Sequence of Serine/threonine-protein phosphatase PP1-alpha catalytic subunit (P62136 whole entry): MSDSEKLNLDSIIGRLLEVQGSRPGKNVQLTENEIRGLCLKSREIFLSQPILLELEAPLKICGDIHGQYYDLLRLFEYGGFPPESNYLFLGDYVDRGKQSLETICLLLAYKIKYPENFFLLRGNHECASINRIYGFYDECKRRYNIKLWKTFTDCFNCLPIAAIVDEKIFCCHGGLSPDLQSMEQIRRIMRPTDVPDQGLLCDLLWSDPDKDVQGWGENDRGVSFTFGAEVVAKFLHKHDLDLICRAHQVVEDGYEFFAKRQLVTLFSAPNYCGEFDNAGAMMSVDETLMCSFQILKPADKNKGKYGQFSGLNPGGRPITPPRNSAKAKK
Sequence of Beta-lactamase (Q5J463 whole entry): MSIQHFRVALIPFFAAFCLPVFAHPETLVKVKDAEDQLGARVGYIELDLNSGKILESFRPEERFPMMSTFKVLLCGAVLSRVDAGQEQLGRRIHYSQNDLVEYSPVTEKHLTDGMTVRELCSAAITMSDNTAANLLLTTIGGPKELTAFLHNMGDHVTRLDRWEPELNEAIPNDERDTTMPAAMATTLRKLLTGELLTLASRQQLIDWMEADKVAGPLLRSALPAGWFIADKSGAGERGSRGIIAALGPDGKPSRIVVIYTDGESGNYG
Sequence of Dual specificity protein phosphatase 6 (Q64346 whole entry): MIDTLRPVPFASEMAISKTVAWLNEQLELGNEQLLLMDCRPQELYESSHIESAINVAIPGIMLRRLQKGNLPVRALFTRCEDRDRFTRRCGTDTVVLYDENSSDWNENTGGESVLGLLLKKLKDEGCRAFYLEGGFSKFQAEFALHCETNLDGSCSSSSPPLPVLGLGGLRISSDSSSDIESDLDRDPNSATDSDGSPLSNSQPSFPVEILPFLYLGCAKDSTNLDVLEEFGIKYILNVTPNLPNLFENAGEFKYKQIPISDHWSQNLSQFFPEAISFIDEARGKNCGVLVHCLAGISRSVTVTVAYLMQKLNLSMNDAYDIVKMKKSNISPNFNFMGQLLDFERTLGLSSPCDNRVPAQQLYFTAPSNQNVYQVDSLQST

`COc1cc(OC)c(-c2c3cc(O)c(=O)cc-3oc3cc(O)c(O)cc23)cc1OC` was tested, and the EC50 [1] was > 100 µM (not active), the IC50 (Beta-lactamase) was 2.13 µM (active) and the EC50 (Insulin-degrading enzyme) was > 54.7 µM (inactive). For the same compound, the IC50 (HEK293) was > 89.2 µM (inactive) and the AC50 [2] was 0.282 µM (active).
With `Oc1nc(Nc2ccccc2)cc2ccccc12` the IC50 [3] was > 67 µM (not active) and the IC50 [4] was > 100 µM (not active).
For `CCCCCCCCCCOC(=O)C[n+]1c(COc2ccccc2C)n(C)c2ccccc21`, the IC50 [5] was > 20 µM (inactive) and the EC50 [6] was > 92.5 µM (inactive).
